# Results as given in patent US20250352490A1, “P-SELECTIN TARGETED NANOPARTICLES AND USES THEREOF” (Ramot at Tel-Aviv University Ltd., priority 2023, published 2025).
# pIC50: −log10 of the molar value. Like-named read-outs stand apart in the source and are kept apart here.
# Assays:
# melanoma patients = settings: cited from earlier work
# [1] = in vivo; cited from earlier work
# D4M.3A cells = assay: Proliferation assay (cell count after 72 h), D4M.3A; type: cell-based, murine; settings: Mus musculus, read-out: IC50 values
# Method: (§1) Cell culture: Murine primary melanoma […].3A cells were obtained from Dartmouth College, Hanover. […].3A cells were cultured in Advanced DMEM growth media supplemented with 5% FBS, 100 μg/mL streptomycin, 100 IU/mL penicillin, 12.5 IU/mL nystatin, and 1% GlutaMAXTM (Gibco, Waltham, MA, USA). Human metastatic melanoma 131/4-5B1 cells were obtained from University of Toronto, Canada, and were cultured in RPMI 1640 medium supplemented with 10% FBS, 100 μg/mL streptomycin, 100 IU/mL penicillin, 12.5 IU/mL nystatin, and 2 mM L-Glutamine (Biological Industries Ltd, Kibbutz Beit Haemek, Israel). Human primary melanoma A375 cells were obtained from ATCC and were cultured in RPMI 1640 medium supplemented with 10% FBS, 100 μg/mL streptomycin, 100 IU/mL penicillin, 12.5 IU/mL nystatin, and 2 mM L-Glutamine. […] Following 72 hours incubation, the cells were counted using a Z1 Coulter Counter (Beckman Coulter). […] Isobolograns and combination index: The interactions between DBF and TRM were evaluated by constructing isobolograms for different drugs ratios and calculating their combination index (CI).^51 First, the inhibitory concentration (IC) values of treatment with DBF, TRM, and their combinations were calculated from the proliferation assays. […]
# pERK and ki67 in tumors = settings: 30 mg/kg DBF daily, cited from earlier work
# A375 cells = assay: Proliferation assay (cell count after 72 h), A375; type: cell-based; settings: Homo sapiens, read-out: IC50 values
# Method: as §1
# [2] = system: PD-L1 expression in EMT6 cells; assay: PD-L1 expression in EMT6 cells by flow cytometry; type: cell-based, murine
# Method: PD-L1 expression after treatments with talazoparib: EMT6 murine mammary carcinoma cells (obtained from ATCC) were incubated with talazoparib (0.1 nM, 10 nM, and 100 nM) for 24-72 hours and then harvested using FACS buffer (protein levels). 1×10^6 cells were incubated with anti-PD-L1 at 1 μg/ml antibody concentration (Mouse PD-L1/B7-H1 Alexa Fluor® 647-conjugated Antibody; R & D Systems #FAB90781R) or isotype antibody (Rabbit IgG Alexa Fluor®647-conjugated Antibody, R & D Systems #IC1051R) for 1 hour on ice. The cells were washed twice with FACS buffer and the fluorescence intensity was measured by Attune NxT Flow Cytometer and analyzed by Kaluza software. All treatments were compared to the secondary antibody only or to the corresponding isotype control.
# PD-L1i blocking activity: In order to assess the PD-L1i small molecule inhibition activity, murine EMT6 cells were seeded in 24-well plate (2×10^4 cells/well). After 24 hours, the medium was replaced with medium containing PD-L1i (SM56; [Acúrcio et al. Journal for ImmunoTherapy of Cancer, 10(7), e004695 (2022)]) for 24-72 hours. The cells were then harvested with FACS buffer, washed and resuspended in FACS buffer. EMT6 cells (1×10^6) were incubated with anti-PD-L1 at 1 μg/ml antibody concentration (Mouse PD-L1/B7-H1 Alexa Fluor®647-conjugated Antibody; R & D Systems #FAB90781R) or isotype antibody (Rabbit IgG Alexa Fluor®647-conjugated Antibody, R & D Systems #IC1051R) for 1 hour on ice. Additionally, to evaluate synergistic activity of PD-L1i with talazoparib, EMT6 cells were treated with the combination of PD-L1i and talazoparib for 48 hours. Later, same antibody and incubation conditions described previously were followed. These experiments were reproduced trice, and the data represent the mean±SD.
# [3] = system: PD-L1 localizations in EMT6 cells; assay: dSTORM imaging of PD-L1 in EMT6 cells; type: cell-based, murine; settings: increasing concentrations, 48 hours
# Method: dSTORM imaging of PD-L1 after exposure of EMT6 cells to talazoparib: EMT6 cells were seeded in Ibidi μ-slide 8 well glass bottom chambered coverslips at a density of 5000 cells per well. After 24 hours incubation, cells were treated with Talazoparib for 48 hours ([…]). After 48 hours cells were washed 1× with PBS and fixed using 3.7% formaldehyde solution for 10 minutes at room temperature. After fixation, cells were washed trice with PBS and incubated with 5% BSA solution overnight at 4° C. […] Between 6 and 10 cells were imaged for each condition. dSTORM images were analyzed with the Nikon NIS elements software (version 5.21.01). dSTORM localizations were detected using Gaussian fitting, with a minimum intensity threshold height of 150 for the 647 nm channel. Molecules detected in 5 consecutive frames were considered as a single blinking event, while molecules detected in more than 5 frames were discarded. […] The resulting x-y coordinates of the detected localizations were imported and run through a custom MATLAB scrip to quantify the localization density per cell. Each cell was manually selected by drawing an ROI around the cell contour (detected in the 488 channel). […]
# EMT6 cells = assay: Proliferation assay, EMT6; type: cell-based, murine; settings: Mus musculus
# Method: (§2) Human MDA-MB-231 and MDA-MB-436, and murine 4T1 and EMT6 cells were obtained from the ATCC. EMT6, MDA-MB-231 and MDA-MB-436 cells were cultured in DMEM supplemented with 10% FBS, 100 IU/mL penicillin, 100 μg/mL streptomycin, 12.5 U/mL Nystatin, 2 mM L-glutamine. 4T1 cells were cultured in RPMI supplemented with 10% FBS, 100 IU/mL Penicillin, 100 μg/mL Streptomycin, 12.5 U/mL Nystatin, 2 mM L-glutamine, 1 mM sodium pyruvate and 10 mM HEPES Buffer. For MDA-MB-436, MDA-MB-23, 4T1 and EMT6, cells were seeded in 24-well plates (2.5×10^4, 2.5×10^4, 1×10^4, 2×10^3 cells/well, respectively) and incubated for 24 hours. Then, the cultured medium was replaced with a medium containing a serial dilution of talazoparib, talazoparib-loaded NPs or blank NPs (carrier only) for additional 72 hours. Untreated (control) cells were supplemented with fresh medium containing 0.1% DMSO. The cells were counted using a Z1 Coulter Counter (Beckman Coulter). Each treatment was assayed in triplicates, N=3.
# [4] = system: mCherry-labeled EMT6 3D spheroids; assay: mCherry-labeled EMT6 3D spheroids sprouting; type: cell-based, murine; settings: Mus musculus, compared to the control
# Method: Analysis of mCherry-labeled EMT6 3D spheroids sprouting: 3D spheroid of EMT6 cells (2000 cells/spheroid) were prepared in DMEM medium supplemented with 0.24 w/v % methyl cellulose. The cells were deposited in 25 μL droplets into the inner side of a 20 mm dish and incubated for 48 hours at 37° C. when the plate is facing upside down to allow for spheroid formation. The spheroids were then embedded in Matrigel®, seeded in a 96-well plate, and monitored for cell invasion into the Matrigel®. The 3D spheroids were treated with talazoparib (1 nM, 100 nM and 1 μM) and their sprouting in the Matrigel® was evaluated by measuring the % red area with ImageJ software.
# MDA-MB-231 cells = assay: Proliferation assay, MDA-MB-231; type: cell-based; settings: Homo sapiens; MDA-MB-231 (BRCA wild-type), 72 hours
# Method: as §2
# 4T1 cells = assay: Proliferation assay, 4T1; type: cell-based, murine; settings: Mus musculus; 4T1 (BRCA wild-type), 72 hours
# Method: as §2
# PD-L1 RNA in EMT6 cells = assay: PD-L1 mRNA in EMT6 cells by q-Real time PCR; type: cell-based, murine; settings: 10 nM, 24-72 hours
# Method: q-Real time PCR: Total RNA was isolated from cultured cells using the Direct-zol RNA Miniprep Plus (Zymo Research), according to the manufacturer's instructions. Once isolated, one microgram of RNA was reverse transcribed to cDNA using qScript cDNA synthesis kit (Quantabio, MA, USA). The cDNA was further diluted (1:50 in DNase/RNase-Free Water) for the qPCR. PD-L1 mRNA levels were assessed by SYBR green real-time PCR (StepOne plus; Thermo Fisher Scientific, Waltham, MA, USA) using PerFecTa SYBR Green FastMix ROX (Quanta BioSciences) and the following custom primers: murine PD-L1: forward, 5′-[…]-3′, reverse, 5′-[…]-3′. GAPDH: forward, 5′-ATTCCACCCATGGAATTC-3′, reverse, 5′-[…]-′3.
# MDA-MB-436 cells = assay: Proliferation assay, MDA-MB-436; type: cell-based; settings: Homo sapiens; MDA-MB-436 (BRCA-mutated), 72 hours
# Method: as §2
structure (smiles),measurement,setting,value
"CC(C)(C)c1nc(-c2cccc(NS(=O)(=O)c3c(F)cccc3F)c2F)c(-c2ccnc(N)n2)s1 [DBF, dabrafenib]",Overall survival (OS),melanoma patients,18.7 months
same,Progression-free survival (PFS),melanoma patients,8.8 months
same,Steady-state brain to plasma concentration ratio,[1],0.019±0.02
same,pIC50,D4M.3A cells; 72 h,8.31
same,Inhibition of pERK in tumors,pERK and ki67 in tumors; 6 hours post-final dose,89%
same,Reduction in ki67 in tumors,pERK and ki67 in tumors; 6 hours post-final dose,28%
same,Duration of pERK reduction in tumors post-dose,pERK and ki67 in tumors,up to 18 hours
same,pIC50,"A375 cells; A-375, 72 h",7.87
O=C1c2ccccc2C(=O)N1CNc1ccc(Oc2ccc(Cl)cc2)cc1 [SM56],Reduction of PD-L1 expression compared to untreated cells,"[2]; 10 μM PD-L1i alone, 48 hours",about 40%
same,PD-L1 expression over time,"[2]; 10 μM, 24-72 hours",reduction in PD-L1 expression in a time-dependent manner
"CC(=O)Nc1cccc(-n2c(=O)n(C3CC3)c(=O)c3c(Nc4ccc(I)cc4F)n(C)c(=O)c(C)c32)c1 [TRM, trametinib]",Steady-state brain to plasma concentration ratio,[1],0.03±0.01
same,pIC50,"D4M.3A cells; D4M.3A, 72 hours",8.07
same,pIC50,"A375 cells; A-375, A375, 72 hours",8.07
Cn1ncnc1[C@H]1c2n[nH]c(=O)c3cc(F)cc(c23)N[C@@H]1c1ccc(F)cc1 [talazoparib],PD-L1 localizations and protein density (dSTORM),[3],increased number of PD-L1 localizations and higher PD-L1 protein density
same,pIC50,"EMT6 cells; EMT6 (BRCA-mutated), 72 hours",8.00
same,pIC50,"EMT6 cells; EMT6 proliferation, NPs versus free drug (FIG. 32)",8.10
same,PD-L1 expression relative to untreated cells,"[2]; 10 nM talazoparib and/or 10 μM PD-L1i, 48 hours",3 folds
same,PD-L1 protein expression,"[2]; 10 nM, 24-72 hours",time-dependent increase in PD-L1 expression
same,PD-L1 protein expression,"[2]; increasing concentrations, 72 hours",induced PD-L1 expression in EMT6 cells in a dose-dependent manner
same,inhibition at 1 µM,[4],70%
same,pIC50,MDA-MB-231 cells,6.39
same,pIC50,4T1 cells,7.24
same,PD-L1 RNA level,PD-L1 RNA in EMT6 cells,time-dependent increase in PD-L1 expression
same,pIC50,MDA-MB-436 cells,8.70
